From a melting point compilation (Tetko et al.; mined from patent text by program, amines drawn as free bases though some values may be those of a salt)

SMILES | melting point [°C]
CCCS(=O)(=O)c1ccc2c(c1)C1(O)C(C2)SC(=NCC)N1CC (centres undefined) | 136
CSC(C)(C)C(=O)N[C@@H](CSSC[C@H](NC(=O)C(C)(C)SC)C(=O)O)C(=O)O | 128 to 129
O=C(Cl)N1Cc2ccccc2Oc2ccc(Cl)cc21 | 100 to 102
CSc1ncc2cc(Oc3ccc(F)cc3F)c(NS(C)(=O)=O)nc2n1 | 199 to 204
CC(C)CN1c2ccccc2C(C)(C)C12C=Nc1cc(-c3ccc(N4CCCC4)cc3)c3ccccc3c1O2 (centres undefined) | 242 to 245
Nc1cc(C=O)nc(C2CCCO2)c1F (centres undefined) | 122 to 123
CCOC(=O)CN1CCN(Cc2cnc(-c3cc4cccc(N(C)S(=O)(=O)c5cccs5)c4[nH]3)s2)CC1 | 167 to 169
N#Cc1ccc(COc2cccc(C(=O)Nc3ccc(C#N)cc3)c2)cc1 | 205 to 207
CCc1nc2c(cnn2CC)c(NC2CCOCC2)c1CNC(=O)c1cccc(C(=O)NCc2ccc(C)c(-c3cccc(CN4CCCN(C)CC4)c3)c2)c1 | 107 to 109
CCCn1cc(-c2ccc3nnn(Cc4ccc5ncccc5c4)c3n2)cn1 | 128 to 130
O=c1oc(-c2ccccc2)cc(O)c1SCCc1ccccc1 | 121 to 124
CC(C)(C)C(NC(=O)Cc1ccc2ncccc2c1)NC(=NC#N)Nc1cccc2ncccc12 (centres undefined) | 150 to 151
CNC(=O)c1cc2c(nc(C)n2C)c2c1CCC(OC)(c1ccccc1)O2 (centres undefined) | 237 to 239
O=C(O)C1CCN(C(=O)c2ccccc2SSc2ccccc2C(=O)N2CCC(C(=O)O)CC2)CC1 | > 250
CCN(C)c1nc2sc3c(NCCN4CCOCC4)ncnc3c2c2c1CCC(C)(C)C2 | 144
O=C(O)c1cncn1C(c1ccccc1)C1CCCCC1 (centres undefined) | 250
CC(C)(C)[Si](C)(C)Oc1cc(Br)c2oc(-c3ccc(O[Si](C)(C)C(C)(C)C)c(F)c3)nc2c1 | 98 to 99
Cc1cc(-c2cc(F)c(F)cc2-c2ccc(S(N)(=O)=O)cc2)ccc1F | 152
CN(C)c1cc(C(O)CNC(C)(C)C)ccc1O (centres undefined) | 108 to 110
CC(C)C(c1ccc(NC(=O)CC(=O)c2ccccc2)c([N+](=O)[O-])c1)n1ccnc1 (centres undefined) | 106
COc1cc(C(=O)NS(=O)(=O)c2ccccc2C)ccc1Cc1cn(C)c2ccc(NC(=O)NC3CCCC3)cc12 | 212 to 215
O=C1CNCCN1c1ccc([N+](=O)[O-])cc1 | 150 to 153
c1cc(N2CCCC2)ncc1C12CCN(CC1)C2 | 119 to 121
CCN(CC)c1ccc(-c2ccc3c(c2)C=C(C(=O)Nc2ccc(CN(C)C4CCOCC4)cc2)CCS3(=O)=O)cc1 | 240 to 246
COc1ccc(C=NS(=O)(=O)c2ccc(C)cc2)cc1 | 127
COC(=O)C1=C(C)NC(C)=C(C(=O)OCCN2CCN(c3cccc(Cl)c3)CC2)C1c1cccc([N+](=O)[O-])c1 (centres undefined) | 65 to 68
CN1Cc2c(C(N)=O)ncn2-c2ccc(F)cc2C1=O | 272 to 273

SMILES | melting point [°C]
CCCCCCCNC(=O)Oc1ccc2c(c1)c(C)cn2NCCCc1ccncc1F | 90 to 93
OCCN1CCCNC1=S | 112 to 114
Cc1nc(-c2ccc(C=CC3(O)CN4CCC3CC4)cc2)no1 (centres undefined) | 188 to 189
Cn1c(=O)ccc2cnc(S(C)(=O)=O)nc21 | 194 to 196
CCCCNS(=O)(=O)CC(O)C(O)C(CC1CCCCC1)NC(=O)c1cccnc1 (centres undefined) | 61 to 64
C=CCC(NC(=O)C(C)(C)C)C(=O)O (centres undefined) | 87 to 88
CC(C)OC(=O)c1ccc2c(c1)ncn2-c1cccc(-c2cccnc2Cl)c1 | 147 to 150
COc1cccc(-c2nc(N)nc(Nc3ccc(O)cc3)n2)c1 | 93.5 to 94
Cc1cc(C)nc(C(N)=NO)n1 | 209
Oc1ccc(-c2cc3cc(O)cc(-c4nnco4)c3o2)cc1 | 260 to 266
CCC1(C)COP(=O)(Cc2ccc(N)cc2)OC1 (centres undefined) | 130 to 131
CCOP(=O)(C/C=C/CNc1c(N)c(=O)c1=O)OCC | 145 to 147
COc1ccc(-c2csc(NC(=O)c3cc4ccccc4cn3)n2)cc1OC | 228 to 230
COc1ccc(N2CCN(c3ccc(N(C)C4=NC(C)(C)CS4)cc3)CC2)cc1 | 167
Cc1cc(C#N)cc(Oc2nc(Cl)nc(Cl)c2C(C)C)c1 | 143 to 144
CC=CCn1c(N(C(C)=O)c2cc(C)cc(C)c2)c(CC)c(=O)[nH]c1=O | 218 to 220
CN(C)C(=O)c1cncn1C | 46 to 47
COc1ccc2c(c1)c1c3c(ccc1n2C)C(=O)N(CCN(C)C)C3=O | 137 to 138
CCCOc1ccccc1-c1nc2nc(NCC(=O)OCC)ncc2c(=O)[nH]1 | 174 to 176
O=C1CNC(SCc2ccccn2)=N1 | 105 to 107
N#Cc1c(N2CCN(C(=O)c3cccs3)CC2)c2cscc2[nH]c1=O | 263
CN(C)c1nc2sc3c(NCc4cccnc4)ncnc3c2c2c1COC(C)(C)C2 | 250 to 252
COc1cccc(OC)c1CC(=O)N1C[C@@H]2C(=O)CCC(c3ccccc3)(c3ccccc3)[C@@H]2C1 (racemic) | 224
CC(C)n1cnc2nc(-c3ccc(Cl)cc3)nn2c1=S | 230 to 232
c1ccc(Cn2c(NC3=NCCN3)nc3ccccc32)cc1 | 165 to 166
CCCCc1cc2cccnc2[nH]1 | 46 to 47
COC(=O)c1ccccc1OCNC(=O)CCCCCNC(=O)OC(C)(C)C | 120 to 121

Now from value to compound:

melting point [°C] | SMILES
91 to 93 | O=C(Nc1ccc(C2CCCCC2)cc1)c1ncccc1O
212 to 213 | Cc1cccc(C)c1-n1cnc(NCC(F)(F)F)nc1=O
144 to 146 | CCOC(=O)C=C(NC(=O)Nc1cc(OC(C)C)c(Cl)cc1F)C(F)(F)F
315 to 317 | Cc1c(C(=O)O)sc2cncc(Oc3ccc(Cl)cc3)c12
210 to 214 | Nc1ccc(C(=O)c2ccncc2)cc1N
244 to 245 | CCCCc1sc(C(=O)O)c2c1-c1nn(C)cc1CC2
168 to 169 | CC(=O)Oc1cn(C(C)=O)c2ccc(F)c(Cl)c12
176 to 178 | COc1c(N(C)C)cc(CC(C#N)=CNc2ccccc2)cc1N(C)C(C)=O
129 to 130 | O=C(O)Cc1cc([N+](=O)[O-])ccc1Oc1ccc(F)cc1
129 to 130 | COC(=O)Cc1cccc(NCCCBr)c1
142 to 146 | CCC(=O)COc1ccc(CC2SC(=O)NC2=O)cc1 (centres undefined)
161 to 162 | CCn1cc(C(=O)NCCCN(C)C)c(=O)c2ccc(I)cc21
93 to 95 | CCOC(=O)C1(O)c2ccccc2S(=O)(=O)N1C(C)(C)C (centres undefined)
> 280 | NNc1nc(Cl)nc2cccc(F)c12
87 to 88 | C=C(C=O)c1ccc(Cl)cc1[N+](=O)[O-]
79 to 80 | CCOC(=O)c1cc(N=Cc2ccccc2)ccc1OC(C)=O
86 to 87 | CCCC(=O)Oc1ccc(OC(=O)CCC)c(C#N)c1C#N
110 to 111 | Cn1cc(-c2cccc(C(F)(F)F)c2)c(=O)n1-c1cccc(C(F)(F)F)c1
243 to 245 | O=C(O)Cc1cccc2c1N=C(c1ccccc1F)CC2=O
120 to 122 | C[C@H](NC(=O)c1ccccc1)C(=O)CCl
249 to 252 | O=C(O)Cn1c(=O)sc2cc(Br)c(Cl)cc21
160 to 162 | COc1ccc2c(Cc3c(Cl)cncc3Cl)nnc(N3CCN(C)CC3)c2c1
134 to 135 | CCCCc1nc(CCCC)n(Cc2ccc(-c3ccccc3C(=O)O)cc2)n1
95 to 96 | CC(C)(CCCCCCNS(=O)(=O)c1ccc(Cl)cc1)C(=O)O
67 to 68 | CC1SC=C2c3ccccc3C=CN2C1=O (centres undefined)

melting point [°C] | SMILES
113 to 117 | CC(C)(C)OC(=O)N1[C@@H](C(=O)O)CC[C@H]1c1ccccc1 (racemic)
84 to 85 | Cc1nc2cc(Br)ccc2s1
214 to 215 | COC(=O)c1c(-c2ccccc2)nn2ccc3c(c12)C(CC#N)CC3 (centres undefined)
180 | CCOC(=O)c1cnc2[nH]ncc2c1OCC
85 to 87 | COC(=O)c1cc(OC)c(OS(=O)(=O)C(F)(F)F)cc1N
274 to 276 | O=c1[nH]c2cc(Cl)cc(Cl)c2c(=O)n1Cc1cccc2ccccc12
120 to 122 | CNC(=O)Nc1cc(NC(=O)/C=C/c2ccc(C(C)(C)C)cc2)ccc1Cl
125 to 126 | CS(=O)(=O)C=C(N)C1(c2ccc(Cl)cc2)CCC1
177 to 178 | NC(=O)N(O)CC(=O)Nc1cccc(OCc2ccccc2)c1
114 to 117 | Cc1nc(OCC(F)(F)F)c([N+](=O)[O-])c(N2CCC(c3ccccc3)CC2)n1
273 | Cc1nc(NC(=O)c2cnn3c(C(F)(F)F)cc(-c4ccc(C(F)(F)F)cc4)nc23)sc1S(=O)(=O)N1CCN(C)CC1
76 to 77 | CC(=O)Oc1ccc2c(c1)CCCO2
191 to 193 | O=C1CNc2c(Cl)cccc2N1
88 to 89 | O=C(O)c1c(C(F)(F)F)ccc(Cl)c1Cl
90 to 93 | Cn1ccc(C(=O)c2ccccc2)c1
96.5 to 98 | COc1cn(C(C)C(=O)N(C)C)nc1-c1ccccc1 (centres undefined)
65 to 66 | COC(=O)c1c(OC)cc(N(C)C)nc1C
89 to 90 | CC(C(N)=O)c1ccc2c(c1)Oc1ncccc1CC2=O (centres undefined)
89 to 90 | Cc1cc(-c2ccc(F)cc2)c(C=CC=O)o1
118 to 120 | CN(O)C(=O)C(=Cc1ccc2ccccc2c1)c1ccc(Br)cc1
107 to 112 | O=C(Nc1cccc(-c2nnn[nH]2)c1)C(=O)N1CCC(Cc2ccc(F)cc2)CC1
122 to 124 | COc1cc(C(C)=O)cc(OC)c1OCCCC(=O)O
164 to 166 | O=C(NCCc1cccs1)c1ccc(-c2ccccc2)cc1
120 to 121 | O=C(O)Cc1cn(-c2ccccc2)nc1-c1ccccc1
115 to 116 | CCc1ccc(OC(C)(C)C(=O)O)cc1OCCCc1cn(-c2ccc(C(F)(F)F)cn2)nc1C(C)C
